Patent US8778385B1, “Medicated animal food composition” (I Care for Dogs Corp., priority 2005, dated 2014)
Entries after “also recorded” stand apart in the source; their conditions may differ.

Legend:
[1] = system: canines; settings: cited from earlier work
[2] = system: tear staining; assay: controlling tear staining in Maltese dogs; type: in vivo
Description: In preparation of the medicated animal food composition, all of the ingredients (except for the tylosin) are initially processed into a powder and then mixed together with the tylosin, as a tartrate. Tylosin is available from the Omaha Vaccine Co. under the brand name TYLAN and is a veterinary antibiotic that is FDA-approved for fowl (chickens/turkeys) and swine (pigs). Tylosin is used primarily to treat respiratory disease caused by Mycoplasma gallisepticum.

Structure (SMILES)	side effects when used to treat excessive tearing [1]	effect in controlling tear staining [2]
CN(C)[C@@H]1C(O)=C(C(N)=O)C(=O)[C@@]2(O)C(O)=C3C(=O)c4c(O)cccc4[C@@](C)(O)[C@H]3C[C@@H]12 [Tetracycline]	upset stomach; also recorded: staining of the teeth	–
CC[C@H]1OC(=O)C[C@@H](O)[C@H](C)[C@@H](O[C@@H]2O[C@H](C)[C@@H](O[C@H]3C[C@@](C)(O)[C@@H](O)[C@H](C)O3)[C@H](N(C)C)[C@H]2O)[C@@H](CC=O)C[C@@H](C)C(=O)/C=C/C(C)=C/[C@@H]1CO[C@@H]1O[C@H](C)[C@@H](O)[C@@H](OC)[C@H]1OC [Tylosin]	–	some beneficial effect
